From ChEMBL document CHEMBL3885881, “DrugMatrix”

Species: Rattus norvegicus
Experiment: DrugMatrix - Regimen: Daily Repeat
Format: toxicity, organism-based, Sprague-Dawley
Parameters: regimen Daily Repeat, gender Male, age 6-8 weeks
Details: in vivo, po, route oral GAVAGE, vehicle .5 % CMC; for ABSOLUTE BASOPHIL / ABSOLUTE EOSINOPHIL / ABSOLUTE LYMPHOCYTE / ABSOLUTE MONOCYTE / ABSOLUTE SEGMENTED NEUTROPHIL / BASOPHIL / EOSINOPHIL / ERYTHROCYTE COUNT / HEMATOCRIT / HEMOGLOBIN / LEUKOCYTE COUNT / LYMPHOCYTE / MEAN CORPUSCULAR HEMOGLOBIN / MEAN CORPUSCULAR HEMOGLOBIN CONCENTRATION / MEAN CORPUSCULAR VOLUME / MONOCYTE / NEUTROPHIL / NUCLEATED RED BLOOD CELLS / PLATELET COUNT: tissue Blood; for ALANINE AMINOTRANSFERASE / ALBUMIN / ALKALINE PHOSPHATASE / ASPARTATE AMINOTRANSFERASE / BLOOD UREA NITROGEN / CARBON DIOXIDE / CHLORIDE / CHOLESTEROL / CREATINE PHOSPHOKINASE / CREATININE / GLUCOSE / LACTATE DEHYDROGENASE / LIPASE / PHOSPHORUS / POTASSIUM / SODIUM / TOTAL BILIRUBIN / TOTAL PROTEIN / URIC ACID: tissue Plasma
[1] = 0 mg/kg, 72 h, dose level Control, time 3 day
[2] = 0 mg/kg, 120 h, dose level Control, time 5 day
[3] = 50 mg/kg, 72 h, dose level Low, time 3 day

CN(C)[C@@H]1C(O)=C(C(N)=O)C(=O)[C@@]2(O)C(O)=C3C(=O)c4c(O)ccc(Cl)c4[C@@](C)(O)[C@H]3C[C@@H]12 [CHLORTETRACYCLINE]
ABSOLUTE BASOPHIL [1]: 0 CELLS/uL
ABSOLUTE EOSINOPHIL [1]: 32.5 CELLS/uL
ABSOLUTE LYMPHOCYTE [1]: 13494.17 CELLS/uL
ABSOLUTE MONOCYTE [1]: 474 CELLS/uL
ABSOLUTE SEGMENTED NEUTROPHIL [1]: 1932.67 CELLS/uL
BASOPHIL [1]: 0%
EOSINOPHIL [1]: 0.17%
ERYTHROCYTE COUNT [1]: 5.45 x10E6/uL
HEMATOCRIT [1]: 34.32%
HEMOGLOBIN [1]: 13.82 G/DL
LEUKOCYTE COUNT [1]: 15.93 x10E3/uL
LYMPHOCYTE [1]: 84.83%
MEAN CORPUSCULAR HEMOGLOBIN [1]: 25.38 pg
MEAN CORPUSCULAR HEMOGLOBIN CONCENTRATION [1]: 40.27 G/DL
MEAN CORPUSCULAR VOLUME [1]: 63.05 fL
MONOCYTE [1]: 3%
NEUTROPHIL [1]: 12%
NUCLEATED RED BLOOD CELLS [1]: 0.67 /100WBC
PLATELET COUNT [1]: 1188.5 x10E3/uL
ALANINE AMINOTRANSFERASE [1]: 54.83 u/L
ALBUMIN [1]: 4.22 G/DL
ALKALINE PHOSPHATASE [1]: 427.67 u/L
ASPARTATE AMINOTRANSFERASE [1]: 86.5 u/L
BLOOD UREA NITROGEN [1]: 15.33 mg/dL
CARBON DIOXIDE [1]: 24.83 mmol/L
CHLORIDE [1]: 102.33 MEQ/L
CHOLESTEROL [1]: 71.67 mg/dL
CREATINE PHOSPHOKINASE [1]: 442.5 u/L
CREATININE [1]: 0.19 mg/dL
GLUCOSE [1]: 160.67 mg/dL
LACTATE DEHYDROGENASE [1]: 236.5 u/L
LIPASE [1]: 9 u/L
PHOSPHORUS [1]: 11.97 mg/dL
POTASSIUM [1]: 6.2 MEQ/L
SODIUM [1]: 142.85 MEQ/L
TOTAL BILIRUBIN [1]: 0.2 mg/dL
TOTAL PROTEIN [1]: 5.8 G/DL
URIC ACID [1]: 1.3 mg/dL
ABSOLUTE BASOPHIL [2]: 0 CELLS/uL
ABSOLUTE EOSINOPHIL [2]: 114.5 CELLS/uL
ABSOLUTE LYMPHOCYTE [2]: 14614 CELLS/uL
ABSOLUTE MONOCYTE [2]: 173 CELLS/uL
ABSOLUTE SEGMENTED NEUTROPHIL [2]: 1048.5 CELLS/uL
BASOPHIL [2]: 0%
EOSINOPHIL [2]: 0.67%
ERYTHROCYTE COUNT [2]: 5.66 x10E6/uL
HEMATOCRIT [2]: 35.52%
HEMOGLOBIN [2]: 14.27 G/DL
LEUKOCYTE COUNT [2]: 15.95 x10E3/uL
LYMPHOCYTE [2]: 91.33%
MEAN CORPUSCULAR HEMOGLOBIN [2]: 25.23 pg
MEAN CORPUSCULAR HEMOGLOBIN CONCENTRATION [2]: 40.2 G/DL
MEAN CORPUSCULAR VOLUME [2]: 62.7 fL
MONOCYTE [2]: 1.17%
NEUTROPHIL [2]: 6.83%
NUCLEATED RED BLOOD CELLS [2]: 0.33 /100WBC
PLATELET COUNT [2]: 1229 x10E3/uL
ALANINE AMINOTRANSFERASE [2]: 58.67 u/L
ALBUMIN [2]: 4.32 G/DL
ALKALINE PHOSPHATASE [2]: 382.5 u/L
ASPARTATE AMINOTRANSFERASE [2]: 81.67 u/L
BLOOD UREA NITROGEN [2]: 17.67 mg/dL
CARBON DIOXIDE [2]: 27.17 mmol/L
CHLORIDE [2]: 102.33 MEQ/L
CHOLESTEROL [2]: 63.67 mg/dL
CREATINE PHOSPHOKINASE [2]: 227.67 u/L
CREATININE [2]: 0.23 mg/dL
GLUCOSE [2]: 155.33 mg/dL
LACTATE DEHYDROGENASE [2]: 146.5 u/L
LIPASE [2]: 10.67 u/L
PHOSPHORUS [2]: 11.93 mg/dL
POTASSIUM [2]: 6.85 MEQ/L
SODIUM [2]: 143.95 MEQ/L
TOTAL BILIRUBIN [2]: 0.18 mg/dL
TOTAL PROTEIN [2]: 6.02 G/DL
URIC ACID [2]: 1.63 mg/dL
ABSOLUTE BASOPHIL [3]: 0 CELLS/uL
ABSOLUTE EOSINOPHIL [3]: 126.67 CELLS/uL
ABSOLUTE LYMPHOCYTE [3]: 10511.33 CELLS/uL
ABSOLUTE MONOCYTE [3]: 344.33 CELLS/uL
ABSOLUTE SEGMENTED NEUTROPHIL [3]: 817.67 CELLS/uL
BASOPHIL [3]: 0%
EOSINOPHIL [3]: 1%
ERYTHROCYTE COUNT [3]: 5.49 x10E6/uL
HEMATOCRIT [3]: 34.47%
HEMOGLOBIN [3]: 13.47 G/DL
LEUKOCYTE COUNT [3]: 11.8 x10E3/uL
LYMPHOCYTE [3]: 89%
MEAN CORPUSCULAR HEMOGLOBIN [3]: 24.57 pg
MEAN CORPUSCULAR HEMOGLOBIN CONCENTRATION [3]: 39.13 G/DL
MEAN CORPUSCULAR VOLUME [3]: 62.87 fL
MONOCYTE [3]: 3%
NEUTROPHIL [3]: 7%
NUCLEATED RED BLOOD CELLS [3]: 0 /100WBC
PLATELET COUNT [3]: 1083.33 x10E3/uL
ALANINE AMINOTRANSFERASE [3]: 50.33 u/L
ALBUMIN [3]: 4.07 G/DL
ALKALINE PHOSPHATASE [3]: 403.67 u/L
ASPARTATE AMINOTRANSFERASE [3]: 84.67 u/L
BLOOD UREA NITROGEN [3]: 16.67 mg/dL
CARBON DIOXIDE [3]: 26 mmol/L
CHLORIDE [3]: 103.67 MEQ/L
CHOLESTEROL [3]: 73.33 mg/dL
CREATINE PHOSPHOKINASE [3]: 273.67 u/L
CREATININE [3]: 0.15 mg/dL
GLUCOSE [3]: 157.67 mg/dL
LACTATE DEHYDROGENASE [3]: 157.33 u/L
LIPASE [3]: 9.33 u/L
PHOSPHORUS [3]: 12.13 mg/dL
POTASSIUM [3]: 6.6 MEQ/L
SODIUM [3]: 146.1 MEQ/L
TOTAL BILIRUBIN [3]: 0.2 mg/dL
TOTAL PROTEIN [3]: 5.67 G/DL
URIC ACID [3]: 1.77 mg/dL
